In the CheMixHub viscosity set:

Assay: xn = mol fraction of the nth substance listed

COC(=O)CC(C)=O + CO
viscosity [mPa·s], 101.3 kPa
Details	x1 = 0.1017	x1 = 0.1887	x1 = 0.3013	x1 = 0.4048	x1 = 0.5038	x1 = 0.6056	x1 = 0.7015	x1 = 0.8024	x1 = 0.8994
298.15 K	0.599	0.662	0.757	0.858	0.954	1.064	1.163	1.288	1.413
303.15 K	0.563	0.618	0.704	0.793	0.879	0.978	1.066	1.176	1.288
308.15 K	0.525	0.578	0.657	0.737	0.815	0.902	0.984	1.082	1.18

COC(=O)CC(C)=O + COC(=O)c1ccccc1
viscosity [mPa·s], 101.33 kPa
Details	x1 = 0.0981	x1 = 0.1935	x1 = 0.2966	x1 = 0.4001	x1 = 0.4987	x1 = 0.5986	x1 = 0.6984	x1 = 0.798	x1 = 0.8977
298.15 K	1.775	1.732	1.703	1.667	1.639	1.615	1.598	1.583	1.569
303.15 K	1.609	1.573	1.548	1.515	1.49	1.469	1.453	1.44	1.429
308.15 K	1.467	1.435	1.413	1.382	1.362	1.343	1.329	1.316	1.306

COC(=O)CC(C)=O + COC(C)=O
viscosity [mPa·s], 101.33 kPa
Details	x1 = 0.0996	x1 = 0.1998	x1 = 0.3009	x1 = 0.397	x1 = 0.4973	x1 = 0.5975	x1 = 0.6969	x1 = 0.7993	x1 = 0.9006
298.15 K	0.448	0.52	0.596	0.688	0.798	0.915	1.044	1.202	1.373
303.15 K	0.424	0.489	0.564	0.643	0.744	0.843	0.963	1.104	1.257
308.15 K	0.403	0.463	0.533	0.603	0.696	0.786	0.913	1.024	1.155

COc1ccc(C=O)cc1 + COCCO
viscosity [mPa·s], 101 kPa
Details	x1 = 0.0753	x1 = 0.1549	x1 = 0.2391	x1 = 0.3283	x1 = 0.4231	x1 = 0.5238	x1 = 0.6311	x1 = 0.7457	x1 = 0.8684
303.15 K	1.502	1.518	1.567	1.656	1.793	1.984	2.242	2.577	3.006
308.15 K	1.463	1.488	1.537	1.614	1.723	1.87	2.062	2.308	2.617
313.15 K	1.214	1.258	1.32	1.404	1.513	1.651	1.824	2.037	2.298
318.15 K	1.129	1.175	1.236	1.312	1.408	1.525	1.669	1.843	2.054
